From US10829530B2, “Analogues of VDAC1-derived peptides” (B. G. NEGEV TECHNOLOGIES AND APPLICATIONS LTD., AT …, priority 2015, dated 2020)
Read-outs that look alike come from different tables or passages of the source.

Experiments:
[1] = tested on: glioma-derived stem cell (GSC) line G7; experiment: Cell death induction in G7 glioma-derived stem cells (PI staining, flow cytometry); assay type: cell-based, human; settings: n=3, read-out: concentration for inducing 50% cell death (EC50)
Description: The G7 GSC cell line was grown using specific glioblastoma stem cell medium, as described previously (Pollard S M et al 2009. Cell Stem Cell. 4(6):568-580.)
The GSC-specific markers, Sox2, Musashi, and Nestin were highly expressed in G7, as compared to U-87MG cells, containing about 1% GSCs, thus confirming the stemness of the cells (FIG. 7B, 7C). Klf4 was expressed in both cell lines with its level in G7 slightly higher. […] Similar results were obtained when apoptosis was assayed using annexinV/PI staining and FACS analysis (FIG. 7E).

BNL1ME cell line = assay type: cell-based; settings: serum-free medium, 6 h; for EC50: read-out: EC50 of cell death
Description: (§1) Cells in suspension were counted (2×10^6/ml) and treated on the same day whereas adherent cells were counted and seeded (1.5−2×10^5/ml) in 12 wells plate 16-24 h before treatment. Cells in suspension or adherent cells were incubated in serum-free medium (200 μl or 500 μl, respectively) with various concentrations of peptide of interest (for 90 min or 6 h, respectively) at 37° C. in the presence of 5% CO2. Cells were collected (adherent cells by trypsinization), centrifuged (1500×g, 5 min), washed once with PBS and analyzed for cell death using propidium iodide (PI) staining and flow cytometer (Beckton-Dickinson, San Jose, Calif.) and BD CellQuest Pro software.
(§2) PI solution was diluted with PBS to a final concentration of 0.5 mg/ml. 2.5 μl of the PI solution were added to each FACS tube, and the tubes were vortexed gently to homogenize the cell suspension. Cell viability was measured in the FACS channel FL3 and data were analyzed using CellQuest Pro software.
Cells were incubated in a serum-free medium with each peptide type for 6 h at 37° C. in the presence of 5% CO2.

PANC-1 cells = experiment: Cell death induction in PANC-1 pancreatic cancer cells (PI staining, flow cytometry); assay type: cell-based, human; settings: PANC-1, serum-free medium, 6 h
Description: as §1, §2
(§3) The human (PANC-1) and mouse (PANC-2) cancerous pancreatic cells were used in this assay. […] Cell death was analyzed by PI staining and percentage of cell death was measured by Flow Cytometery.

PANC-2 cells = experiment: Cell death induction in PANC-2 pancreatic cancer cells (PI staining, flow cytometry); assay type: cell-based, mouse; settings: PANC-2, serum-free medium, 6 h
Description: as §1, §2, §3

[2] = Peptide solubility (soluble peptide in supernatant, absorbance at 280 nm); assay type: physicochemical
Description: The peptides were dissolved in 100% DMSO then diluted by about 10-fold to reduce DMSO to 10-11% and the peptide to 4.4 or 4 mM, and the amount of the soluble peptide was analyzed in the supernatant (SUP) following centrifugation to remove insoluble peptide.
The peptides were synthesized by GL Biochem (Shanghai, China) to >95% purity. […] Then the solutions were diluted to peptide concentration of 20 mg/ml (4.86 mM) by adding while mixing 95 μl of distilled water and the diluted solutions were incubated in 37° C. water bath for 30 minutes to allow further solubilization until the solutions became clear. The peptide solutions were then centrifuged for 5 min at 15,000 g and the supernatant of each preparation was transferred to fresh Eppendorf tube with low binding capacity. Aliquots of the obtained solution were taken for further analysis of peptide concentration.
Peptides were dissolved as described hereinabove. Concentration examined was 4 mM; solvent used was DDW/10% DMSO/150 mM NaCl (NaCl added later at a final concentration of 150 mM) as a common physiologically compatible solution for drug administration.
The molecular weight of Tf-D-LP=4111.67 g/mol. […] 8.5 μl DMSO 100% were added to the peptide to form a concentration of 40 mM, and the solution was incubated in a water bath at 37° C. for 15 min until the solution became clear. The solution obtained was diluted by about 10-fold with DDW reaching a final concentration of 4.4 mM (11.1% DMSO), incubated in a water bath at 37° C. for 15 min, and then incubated overnight at 4° C. […] Peptide concentration in each step was analyzed.
Peptide concentration was determined from the absorbance at 280 nm following its denaturation and using the following calculation:
Weight/volume (mg/ml) concentration was calculated according to the equation: mg peptide/ml=(AU×DF×Mw)/[(TrypW #×5560)+(TyrY #×1200)]: • AU—peptide absorbance measured • DF—dilution factor • Mw—Molecular weight • TrypW #—number of Tryptophan in the peptide sequence • TyrY #—number of Tyrosine in the peptide sequence

U-87MG cells = experiment: Intracranial-orthotopic U-87MG xenograft in nude mice (MRI tumor volume, survival); assay type: in vivo, mouse; settings: administrated intravenously, inferred from effect on brain tumor
Description: For the intracranial-orthotopic xenograft mouse model, U-87MG cells (8×10^4) were engrafted into a nude mouse brain using a stereotactic device. […] Mice were subjected to MRI and then sacrificed. Brains were excised and processed for IHC. Tumor volume was analyzed using VivoQuant 2.10 software.
25 and 32 days later, tumor growth was monitored by MRI (FIG. 11A).

THP-1 cells = experiment: Cell death induction in THP-1 leukemia cells (PI staining, flow cytometry); assay type: cell-based, human; settings: THP-1, serum-free medium, 90 min, 37° C.
Description: as §1, §2
Cells of human monocytic cell line derived from an acute monocytic leukemia patient (THP-1 cells, 400,000 cells per well) were used in this experiment.

GL-261 cells = experiment: Cell death induction in GL-261 glioma cells (PI staining, FACS); assay type: cell-based, mouse; settings: GL-261, serum-free medium, 6 h
Description: as §1, §2

B16F10.0 melanoma cells = experiment: Cell death induction in B16F10.0 melanoma cells (PI staining, FACS); assay type: cell-based, mouse; settings: B16F10.0, serum-free medium, 6 h
Description: as §1, §2
Cell death was analyzed by PI staining and FACS.

U-87MG = assay type: cell-based; settings: Example 7, n=3, read-out: concentration for inducing 50% cell death (EC50)
Description: Human primary glioblastoma tumor-derived cell lines (U-87MG), at 6×10^5 cells per ml were incubated in a serum-free medium with the examined peptide at several concentrations for 6 h at 37° C. in the presence of 5% CO2. […] The cells were then trypsinized, centrifuged (1500×g, 5 min), washed with PBS and analyzed for cell death using PI staining and flow cytometer (Beckton-Dickinson, San Jose, Calif.) and BD CellQuest Pro software.

A549 = experiment: Peptide storage stability, read out as death of A549 cells (PI staining, FACS); assay type: cell-based; settings: for activity kept after storage: assayed at 10 μM on A549
Description: The peptide (0.5 mM in 5% DMSO) was incubated at −20° C., 4° C. or 25° C. for the indicated time, and then assayed (at 10 μM) for its capability to induce death of A549 using PI staining and FACS analysis. In untreated cells, cell death was 3%, while with the peptide, cell death was over 90% (n=2).
The assay conditions were as described in FIG. 8A above.

| Structure (SMILES) | EC50 [1] [µM] | EC50 (BNL1ME cell line) [µM] | EC50 (PANC-1 cells) [µM] | EC50 (PANC-2 cells) [µM] | solubility in 100% DMSO [2] | crossing of the blood brain barrier (BBB) (U-87MG cells) | EC50 (THP-1 cells) [µM] | EC50 (GL-261 cells) [µM] | EC50 (B16F10.0 melanoma cells) [µM] | EC50 (U-87MG) [µM] | maximal cell death induction (BNL1ME cell line) [%] | solubility in 100% DMSO ([2]; 100% DMSO) | soluble peptide out of the total peptide content ([2]; DMSO concentration reduced to 10%, about 4 mM peptide) | activity kept after storage (A549; 0.5 mM in 5% DMSO stored at 4° C. or 25° C.) [%] | activity kept after storage (A549; 0.5 mM in 5% DMSO stored at −20° C.) | cell death (A549; A549, 10 μM peptide, n=2, untreated cells 3%) |
| --- | --- | --- | --- | --- | --- | --- | --- | --- | --- | --- | --- | --- | --- | --- | --- | --- |
| CC[C@H](C)[C@H](NC(=O)[C@H](Cc1ccc(O)cc1)NC(=O)[C@@H]1CCCN1C(=O)[C@H](CCCNC(=N)N)NC(=O)[C@H](Cc1c[nH]cn1)NC(=O)[C@@H](CO)NC(=O)[C@@H](Cc1c[nH]c2ccccc12)NC(=O)[C@H](NC(=O)[C@@H](Cc1c[nH]c2ccccc12)NC(=O)[C@@H](CCC(=O)O)NC(=O)[C@@H](CCCCN)NC(=O)[C@@H](CCCCN)NC(=O)[C@@H](CC(C)C)NC(=O)[C@@H](CCC(=O)O)NC(=O)[C@H](NC(=O)[C@@H](C)NC(=O)[C@H](NC(=O)[C@@H](CC(N)=O)NC(=O)[C@@H](CC(C)C)NC(=O)[C@@H](C)NC(=O)[C@@H](Cc1c[nH]c2ccccc12)NC(=O)[C@H](NC(=O)[C@@H](C)NC(=O)CNC(=O)[C@@H](CC(N)=O)NC(=O)[C@@H](CO)NC(=O)[C@@H](CC(N)=O)NC(=O)[C@@H](CCCCN)NC(=O)[C@@H](Cc1c[nH]c2ccccc12)NC(=O)[C@H](NC(=O)[C@@H](Cc1c[nH]c2ccccc12)NC(=O)[C@H](N)CCCCN)[C@H](C)O)[C@H](C)O)C(C)C)[C@H](C)O)[C@H](C)O)C(=O)N[C@@H](C)C(=O)N[C@@H](Cc1c[nH]cn1)C(=O)O [Retro-Tf-D-LP4, D-Lys-D-Trp-D-Thr-D-Trp-D-Lys-D-Asn-D-Ser-D-Asn-D-Gly-D-Ala-D-Thr-D-Trp-D-Ala-D-Leu-D-Asn-D-Val-D-Ala-D-Thr-D-Glu-D-Leu-D-Lys-D-Lys-D-Glu-D-Trp-D-Thr-D-Trp-D-ser-His-Arg-Pro-Tyr-Ile-Ala-His] | 2.5 ± 0.3 | 2.5 | ~4 | ~4 | high solubility | can cross the BBB | 4.5 | 2.2 | 7 | 1.5 ± 0.3 | – | – | – | – | – | – |
| CC[C@H](C)[C@H](NC(=O)[C@H](C)NC(=O)[C@@H](N)Cc1c[nH]cn1)C(=O)N[C@@H](Cc1ccc(O)cc1)C(=O)N1CCC[C@H]1C(=O)N[C@@H](CCCNC(=N)N)C(=O)N[C@@H](Cc1c[nH]cn1)C(=O)N[C@H](CO)C(=O)N[C@H](Cc1c[nH]c2ccccc12)C(=O)N[C@@H](C(=O)N[C@H](Cc1c[nH]c2ccccc12)C(=O)N[C@H](CCC(=O)O)C(=O)N[C@H](CCCCN)C(=O)N[C@H](CCCCN)C(=O)N[C@H](CC(C)C)C(=O)N[C@H](CCC(=O)O)C(=O)N[C@@H](C(=O)N[C@H](C)C(=O)N[C@@H](C(=O)N[C@H](CC(N)=O)C(=O)N[C@H](CC(C)C)C(=O)N[C@H](C)C(=O)N[C@H](Cc1c[nH]c2ccccc12)C(=O)N[C@@H](C(=O)N[C@H](C)C(=O)NCC(=O)N[C@H](CC(N)=O)C(=O)N[C@H](CO)C(=O)N[C@H](CC(N)=O)C(=O)N[C@H](CCCCN)C(=O)N[C@H](Cc1c[nH]c2ccccc12)C(=O)N[C@@H](C(=O)N[C@H](Cc1c[nH]c2ccccc12)C(=O)N[C@H](CCCCN)C(=O)O)[C@H](C)O)[C@H](C)O)C(C)C)[C@H](C)O)[C@H](C)O [Tf-D-LP4, His-Ala-Ile-Tyr-Pro-Arg-His-D-Ser-D-Trp-D-Thr-D-Trp-D-Glu-D-Lys-D-Lys-D-Leu-D-Glu-D-Thr-D-Ala-D-Val-D-Asn-D-Leu-D-Ala-D-Trp-D-Thr-D-Ala-D-Gly-D-Asn-D-Ser-D-Asn-D-Lys-D-Trp-D-Thr-D-Trp-D-Lys] | – | 2.7 | – | – | – | – | 8 | 3.3 | – | – | 70 | high solubility | about 10% | 75 | full activity | over 90% |
